Test results published in patent publication US6133279A, “Therapeutic agents for renal diseases and organ preservatives” (Chugai Seiyaku Kabushiki Kaisha, priority 1996, dated 2000).
Where two headings read alike, the source gives them in different places.

System: porcine kidney-derived LLC-PK1 cells
Assay: Protective effect against oxidized LDL-induced injury of porcine kidney-derived LLC-PK1 cells (1)
Assay type: cell-based
Conditions: Sus scrofa, LLC-PK1, 6 h, mean ± standard deviation, read-out: Cytoprotection rate (%)
Experimental: For the purpose of evaluating in vitro cytoprotective effect of the compounds of the present invention, a cytoprotective study was performed using porcine kidney-derived LLC-PK1 cells (ATCC-CRL-13921) injured by oxidized low-density lipoprotein (oxidized LDL).
Oxidized LDL was prepared by incubating 1 mg/ml of rabbit LDL in PBS (-) in the presence of 10 μM CuSO4 at 37° C. for 24 hours. Cell culture was carried out by plating 1.25×10^4 cells/250 μl/well on a 48-well plate containing M199 medium containing 3% FBS. Test compounds were dissolved or suspended in ethanol and added to the wells in an amount of 1.25 μl/well to a concentration of 0.1, 1 or 10 μM in each well. After 16 hours or immediately after the addition of the compounds, oxidized LDL was added to the wells. Probucol, α-tocopherol and Trolox which is a water-soluble analogue of α-tocopherol were used as reference control compounds. Oxidized LDL was diluted twice with saline and then added to the wells in an amount of 62.5 μl/well to a concentration of 100 μg/ml and the cells were cultured for 6 hours after addition of the oxidized LDL. Then, 162.5 μl/well of the culture medium were collected and measured for the lactate dehydrogenase (LDH) level (LD-L: SIGNA DIAGNOSTICS) having leaked into the medium.
The magnitude of cytoprotective effect was expressed as the cytoprotection rate which was determined by calculating the data assuming that the magnitude in wells containing oxidized LDL is 0% and that the magnitude in wells containing saline is 100%.

[1] = compound added 16 hours before adding oxidized LDL
[2] = compound added immediately before adding oxidized LDL

## CCCCCC1(CCCCC)Cc2c(cc(C(C)(C)C)c(O)c2C(C)(C)C)O1 [Example 36, 4,6-Di-t-butyl-2,2-di-n-pentyl-5-hydroxy-2,3-dihydrobenzofuran]
[1]
  inhibition at 0.1 µM: -1 ± 7.4%
  inhibition at 1 µM: 92.2 ± 3.7%
  inhibition at 10 µM: 97.7 ± 1.1%
[2]
  inhibition at 0.1 µM: -3.2 ± 1.1%
  inhibition at 1 µM: 0.6%
  inhibition at 10 µM: 78.8 ± 3.6%
